The values below come from publication PMC9380430, “Aaptamine – a dual acetyl – and butyrylcholinesterase inhibitor as potential anti-Alzheimer’s disease agent” (Pharmaceutical Biology, 2022).

For assay [1], the system named is AlCl3-induced zebrafish AD model. The assay can be described thus: AlCl3-induced zebrafish AD model, behaviour assay. The format is in vivo. The conditions noted are these: + 100 μM AlCl3, 3 d; for speed change after light stimulus: model 1.38 mm/s, control 2.56 mm/s; for movement distance during 60 min: model 4968 mm, control 9219 mm. The procedure:
Briefly, the 3–6 dpf zebrafish larvae were randomly placed in a 6-well microplate at a density of 30 zebrafish per well and treated with 100 μM AlCl3 to establish the AD model. […] The control group was maintained in the reverse osmosis water with 0.5% DMSO while the model group was treated with 100 μM AlCl3 containing 0.5% DMSO. […] After 3 d, the distance and speed change after light stimulus alteration were analysed and recorded for three rhythmic light within 60 min (10 min darkness and 10 min illumination alternately) using viewpoint behaviour analyser (Zebralab V3, ViewPoint Life Sciences Co., Ltd., Lyons, France). The protocol for this study involving animals and their maintenance was approved by the Animal Care and Use Committee of Shandong Academy of Sciences (No.00612). Efficacy on motility (%)=[Dsample group−Dmodel group]/[Duntreated group−Dmodel group]×100.
D is the movement distance of zebrafish during 60 min.
Efficacy on speed change (%) = [Vsample group – Vmodel group]/[Vuntreated group – Vmodel group] × 100. V is the average velocity (mm/s) of different groups which was obtained by recording the movement distance of every min for every zebrafish during 60 min. All data are expressed as mean ± SEM and analysed by GraphPad Prism version 7.0 software (Graphpad Software Inc., La Jolla, CA). Differences between groups were examined for statistical significance using one‐way ANOVA with Tukey’s post hoc test.

Assay [2] concerns AChE. The note with it: ref Moodie et al. [2019]; read-out: IC50 against AChE (literature); cited from earlier work.
Assay [3] has as its target T1, AChE (Electrophorus electricus, UniProt O42275).
T1 construct: AChE (200 U/g from electric eel); purchased Macklin Inc. (Shanghai, China)
In words: biochemical. The note with it: substrate ATChI, 37 °C; read-out: IC50 against AChE. As for the experimental part: (§1) AChE (200 U/g from electric eel) and 5,5′-dithiobis(2-nitrobenzoic acid) (DNTB) were purchased from Macklin Inc. (Shanghai, China). BuChE (10 U/mg from horse serum), acetylthiocholine iodide (ATChI) and butyrylthiocholine iodide (BTChI) were purchased from Shanghai Yuanye Bio-Technology (Shanghai, China).
(§2) The lyophilized powder of AChE and BuChE was dissolved in protein stabilizer (0.1 g BSA dissolved in 100 mL PBS) to form the storage concentration of 10 U/mL and then diluted to the required concentrations. […] After 30 min of incubation at 37 °C, 10 μL of substrate ATChI or BTChI (10 mM) were added and incubated at 37 °C for 30 min. […] For the blank control group, the assays were carried out with wells containing all components except AChE and BuChE. […] All experiments were performed in triplicate.

Assay [4] deals with T2, BuChE (Equus caballus, UniProt P81908).
T2 construct: BuChE (10 U/mg from horse serum); purchased Shanghai Yuanye Bio-Technology (Shanghai, China); host or cells: horse serum
T2 sequence (P81908 whole entry): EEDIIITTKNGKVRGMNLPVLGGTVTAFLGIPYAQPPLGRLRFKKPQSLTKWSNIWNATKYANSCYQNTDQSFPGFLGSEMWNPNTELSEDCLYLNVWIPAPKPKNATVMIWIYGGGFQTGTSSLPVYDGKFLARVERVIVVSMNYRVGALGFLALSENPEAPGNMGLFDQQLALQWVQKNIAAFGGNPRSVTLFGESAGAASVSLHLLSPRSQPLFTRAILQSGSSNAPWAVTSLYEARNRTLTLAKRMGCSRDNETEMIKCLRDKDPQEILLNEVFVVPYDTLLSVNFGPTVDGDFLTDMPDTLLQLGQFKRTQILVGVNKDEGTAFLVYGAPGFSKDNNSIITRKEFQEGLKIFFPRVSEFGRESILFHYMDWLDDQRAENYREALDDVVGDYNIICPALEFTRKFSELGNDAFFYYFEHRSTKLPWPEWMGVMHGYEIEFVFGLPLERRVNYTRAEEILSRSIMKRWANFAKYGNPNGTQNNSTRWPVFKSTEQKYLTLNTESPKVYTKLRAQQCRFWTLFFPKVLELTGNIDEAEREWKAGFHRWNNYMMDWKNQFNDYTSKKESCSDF
In words: biochemical. The conditions noted are these: substrate BTChI, 37 °C; read-out: IC50 against BuChE. As for the experimental part: as §1, §2

The target in assay [5] is T1, AChE. The assay can be described thus: Kinetic study of AChE inhibition (Lineweaver-Burk, secondary plot). The format is biochemical. The procedure: (§3) To clarify the mechanism of action of aaptamine, reciprocal plots of 1/[velocity] vs. 1/[substrate] (Lineweaver-Burk plots) were constructed at different concentrations of the substrate ATChI or BTChI (0, 1.25, 2.5, 5, 10 and 25 mM) and aaptamine (0, 5, 20 and 40 μM). Meanwhile, the parallel experiment was also carried out without aaptamine. The remaining procedure was the same as that of described in cholinesterases inhibition assay. The data were plotted on a Lineweaver–Burk diagram using Microsoft Excel 2016 to reveal the mechanism of inhibition. The steady-state inhibition constant Ki (intercept on the x-axis) was determined by the secondary plot of slope vs. the concentrations of inhibitor.

For assay [6], the target named is T2, BuChE. The assay can be described thus: Kinetic study of BuChE inhibition (Lineweaver-Burk, secondary plot). Type of assay: biochemical. As for the experimental part: as §3
Assay [7] concerns the target T1, AChE. The assay can be described thus: Surface plasmon resonance (SPR) assay, AChE. The format is binding. The conditions noted are these: Biacore T100, steady-state affinity fitting; read-out: Kd (equilibrium dissociation constant) for AChE. The procedure: (§4) The experiments were carried out using Biacore T100 with the Sensor Chip CM5. The chip surface was activated following standard NHS + EDC with Biacore PBS-EP (0.02 M Phosphate buffer with 2.7 mM KCl, 0.137 M NaCl and 0.05% P20) buffer used as the running buffer. 7000 RU of untagged AChE or 6600 RU of untagged BuChE was immobilized per flow cell and 100 μg/mL AChE or 20 μg/mL BuChE was injected. The cholinesterase protein is coupled to the sensor chip CM5 by amine coupling. 1 M (pH 8.5) ethanolamine-HCl was used to seal off the active group. Aaptamine was injected into the protein channel and blank channel at the following doses: 100, 50, 25, 12.5, 6.25, 3.125 and 0.39 μM at a flow rate of 30 μL/min. The protein binding period was set to 1 min, and the dissociation period was set to 2 min. The affinity was obtained by fitting the binding data using Biacore T100 Evaluation Software version 3.0 (Chicago, USA).

The target of assay [8] is T2, BuChE. The assay can be described thus: Surface plasmon resonance (SPR) assay, BuChE. The conditions noted are these: Biacore T100, steady-state affinity fitting; read-out: Kd (equilibrium dissociation constant) for BuChE. Type of assay: binding. As for the experimental part: as §4
Assay [9] has as its system nicotinic acetylcholine receptors (nAChRs). The conditions noted are these: ref Kudryavtsev et al. [2014]; cited from earlier work.
For assay [10] the test system is unchanged. The note with it: ref Kudryavtsev et al. [2014]; cited from earlier work. This is another data set of the same source.
Assay [11] deals with BuChE. The note with it: ref Moodie et al. [2019]; read-out: IC50 against BuChE (literature); cited from earlier work.

T1 sequence (O42275 24-633): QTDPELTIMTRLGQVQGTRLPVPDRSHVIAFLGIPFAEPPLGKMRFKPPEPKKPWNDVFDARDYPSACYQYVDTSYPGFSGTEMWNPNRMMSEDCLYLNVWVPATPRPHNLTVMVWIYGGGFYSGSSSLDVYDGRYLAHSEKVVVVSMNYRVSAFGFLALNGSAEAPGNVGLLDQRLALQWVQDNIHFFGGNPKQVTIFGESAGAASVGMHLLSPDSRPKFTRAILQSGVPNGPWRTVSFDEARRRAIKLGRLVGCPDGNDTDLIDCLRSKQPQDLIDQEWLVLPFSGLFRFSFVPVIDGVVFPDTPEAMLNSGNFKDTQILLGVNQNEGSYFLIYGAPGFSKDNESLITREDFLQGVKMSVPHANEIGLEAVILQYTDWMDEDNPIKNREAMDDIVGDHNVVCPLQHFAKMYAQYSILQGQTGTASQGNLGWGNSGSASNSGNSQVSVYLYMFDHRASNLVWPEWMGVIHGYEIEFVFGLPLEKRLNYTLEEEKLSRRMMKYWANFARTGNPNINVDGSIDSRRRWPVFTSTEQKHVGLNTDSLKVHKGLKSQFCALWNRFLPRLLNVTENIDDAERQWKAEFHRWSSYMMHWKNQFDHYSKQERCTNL

For `COc1cc2c(cc1OC)C(=O)C(CC1CCN(Cc3ccccc3)CC1)C2` (centres unmarked) [donepezil, reference compound], in assay [1] (8 μM), the dyskinesia recovery rate came out at 63.7% and the “movement distance during 60 min” value came out at 7675 mm. Also, in assay [1] (8.0 μM), the “efficacy on speed change” value came to 63.6% and the “speed change after light stimulus” value stood at 2.13 mm/s.
As to `COc1ccc2c3c1O[C@H]1C[C@@H](O)C=C[C@@]31CCN(C)C2` [galantamine], in the assay with AChE [2], the IC50 was […].
`COc1cc2ccnc3c2c(c1OC)NC=C3` [aaptamine]: the results for the 50% inhibitory concentration (IC50) on AChE [3] and at BuChE [4] were 16 µM and 4.6 µM, respectively. For the same compound, at AChE [5] (Lineweaver-Burk plots), the “inhibition type towards AChE” value is recorded as “mixed-type inhibition”. Further, the Ki at AChE [5] (secondary plot of slope vs inhibitor concentration, substrate ATChI, read-out: steady-state inhibition constant Ki against AChE) is 6.96 ± 0.04 µM; on BuChE [6] (secondary plot of slope vs inhibitor concentration, substrate BTChI, read-out: steady-state inhibition constant Ki against BuChE), 6.35 ± 0.02 µM. On BuChE [6] (Lineweaver-Burk plots), the “inhibition type towards BuChE” value is given as “mixed-type inhibition”. The Kd at AChE [7] was 87.6 µM; on BuChE [8] it was 10.7 µM. For the same compound, the dyskinesia recovery rate in assay [1] (5 μM) amounted to 34.8%; in [1] (10 μM), 58.8%; in [1] (20 μM), 60.0%. Further, the “efficacy on speed change” value in assay [1] (5 μM) was determined as 34.7%; in [1] (10 μM), 58.5%; in assay [1] (20 μM) it was 60.2%. Moreover, the “speed change after light stimulus” value in [1] (5 μM) stood at 1.79 mm/s; in assay [1] (10 μM), 2.07 mm/s; in assay [1] (20 μM), 2.09 mm/s. For the same compound, the “movement distance during 60 min” value worked out at 6447 mm in assay [1] (5 μM), 7466 mm in assay [1] (10 μM) and 7517 mm in assay [1] (20 μM). In assay [9], the “inhibitory effect on nAChRs of Torpedo californica” value is on record as “weak inhibitory effect”. Moreover, the “inhibitory effect on nAChRs of humans” value in assay [10] is “weak inhibitory effect”.
`CCN(C)C(=O)Oc1cccc([C@H](C)N(C)C)c1` [rivastigmine]: the results for the IC50 with AChE [2] and in the assay on BuChE [11] were […] and […], respectively.
